In brackets after ≈: the same amount, converted by molar mass. Activity calls are given as the source filed them. The rule behind the calls is not given here.
Assays:
[1] = Cytotoxicity against human 9KB cells; type: functional; details: read-out: ED50 (the source's name)
P388 = assay: In vivo antitumor activity against mouse P388 cells at 7.5 mg/kg relative to control; type: functional
B16 = assay: In vivo antitumor activity against mouse B16 cells at 1.5 to 12.0 mg/kg relative to control; type: functional, organism-based

Structure (SMILES)	EC50 [1] [µg/mL]	T/C (P388) [%]	Activity (B16)
CC(C)(O)[C@H](O)COc1c2occc2cc2ccc(=O)oc12 [HERACLENOL]	> 100		
COc1cc([C@@H]2c3cc4c(cc3C[C@H]3COC(=O)[C@@H]32)OCO4)cc2c1OCO2 [AUSTROBAILIGNAN 1]	0.027 (≈ 0.0706 µM)	125	inactive
CC[C@H](CC[C@@H](C)[C@H]1CC[C@H]2[C@@H]3CC=C4C[C@@H](O)CC[C@]4(C)[C@H]3CC[C@]12C)C(C)C [BETA-SITOSTEROL]	22 (≈ 53 µM)		
COc1cc2ccc(=O)oc2cc1O [SCOPOLETIN]	2.9 (≈ 15.1 µM)		
CC1(C)C=Cc2c(ccc3ccc(=O)oc23)O1 [SESALIN]	31 (≈ 136 µM)		
COc1c2ccoc2c(OCC=C(C)C)c2oc(=O)ccc12 [PHELLOPTERIN]	7.2 (≈ 24 µM)		
O=C1OC[C@H](Cc2ccc3c(c2)OCO3)/C1=C\c1ccc2c(c1)OCO2 [SAVININ]	22 (≈ 62.4 µM)		
O=C1OCC(C(O)c2ccc3c(c2)OCO3)C1Cc1ccc2c(c1)OCO2 (stereo unspecified) [SVENTENIN]	23 (≈ 62.1 µM)		
CC(C)=CCOc1c2occc2cc2ccc(=O)oc12 [PENTOSALEN]	33 (≈ 122 µM)		

— ChEMBL document CHEMBL1151366, “Potential Anticancer Agents. XVIII. Constituents of Amyris pinnata” (1981)
